Patent publication US10035780B2, “Quinazoline scaffold based compounds, pharmaceutical compositions and methods of use thereof” (TECHNION RESEARCH & DEVELOPMENT FOUNDATION LTD., priority 2014, dated 2018)
Entries after “also recorded” stand apart in the source; their conditions may differ. Where two headings read alike, the source gives them in different places.

How the values were obtained:
TSPO = TSPO (Homo sapiens (Human), UniProt P30536); format: binding
Procedure: Briefly, the assay utilizes radioactive standard ligand [^3H] PK 11195 (1-(2-chlorophenyl)-N-methyl-N-(1-methyl-propyl)-3 isoquinolinecarboxamide), and measures the ability of the compounds of the invention to displace standard ligand in binding to TSPO. Total radioactive binding was determined by measuring the radioactivity of the radioactive ligand-receptor complex, obtained in the reaction of radioactive standard with the TSPO. Radioactive standard and the examined compound were added to the TSPO and after some incubation time the radioactivity of the resulting ligand-receptor complexes was measured with the help of a […]. This radioactivity indicates the binding of the radioactive standard to TSPO. […] This can be expressed as the half maximal inhibitory concentration (IC50), which is a measure of the effectiveness of a compound in inhibiting biological or biochemical function, in this case inhibiting binding of standard radioactive ligand binding to the TSPO. A derivative of the IC50 is the Ki, which is the calculated binding affinity of the novel compound to the TSPO.
Binding to TSPO was evaluated using a [^3H]PK 11195 radio-assay, as described above.

U118MG cells [1] = assay: Protection against cell death induced by glutamate in U118MG cell culture; format: cell-based, human; settings: for lethal effects of compound at high concentration: 100 μM compound alone; for lethal effects of compound at high concentration / cell death effect of glutamate at high compound concentration: halogenated vs unhalogenated analog; for protection against cell death induced by glutamate: U118MG cells, 35 mM glutamate, compound 1-100 μM; for Protection against glutamate-induced cell death: cell culture, grade in words
Procedure: Cell cultures of various human glial type cell lines (T98G, U87MG, A172, U118MG), as well as human neuronal type cell lines SH-SY 5Y and Be(2)-C were used to test the new compounds. In addition, the rat glioma cell line C6 was used. PC12 cells originating from rats were used as another cell line displaying neuronal characteristics. The applicants also have produced, by genetic manipulation, a modified rat C6 glial cell strain and a modified human U118MG glial type cell strain, both under-expressing the TSPO, which allows to study TSPO specific effects, including of the compounds of the invention, which can be done according to methods described previously (Weisinger et al. Biochemistry. 2004; 43:12315-21; Levin et al. 2005; Zeno et al., 2009).
The protective capabilities of the compounds of the invention and involvement of the TSPO were tested in cell culture, using cell lines of glial and neuronal type, cultured and testing according to standard methods (Kugler et al. 2008; Zeno et al. 2009; Dadon-Nachum et al. Stem Cell Rev. 2011; 7:664-71). Furthermore, primary cell cultures are also used (Banker, G. et al. Culturing Nerve Cells, 2nd Edition, The MIT Press (1998). Treatments included: (1) exposure to glutamate (35 mM), Abeta(1-42), NH4Cl, CoCl2, and nitric oxide (NO) donors, in order to mimic particular aspects of neurodegeneration; (2) treatment with the novel compounds and with traditional TSPO ligands as comparative treatment; and (3) TSPO knockdown by genetic manipulation.
(§1) Techniques and parameters assayed are summarized here: Total protein levels (Bradford. Anal Biochem. 1976; 72:248-54); TSPO ligand binding assays (Kugler et al. 2008; Levin et al. 2005; Danovich et al. Eur Neuropsychopharmacol. 2008; 18:24-33) cell death, including apoptosis and necrosis and related molecular biological processes (Soustiel et al. Neuropathol Appl Neurobiol. 2008; 34:412-23; Soustiel et al. Exp Neurol. 2008; 214:201-8; Zeno et al. 2009); mitochondrial transmembrane potential collapse (Chelli et al. Biochem Pharmacol. 2004; 68:125-34; Kugler et al. 2008; Zeno et al., 2009; Shargorodsky et al. Apoptosis. 2012; 17:647-65), reactive oxygen species (ROS) generation as a measure of oxidative stress (Veenman et al. 2008; Zeno et al. 2009); TSPO knockdown (Levin et al. 2005; Zeno et al. 2009); expression levels of mitochondrial TSPO and associated proteins (Veenman et al. 2002; Levin et al. 2005; Veenman et al. 2008); gene expression with RT-PCR and microarray analysis (Bode et al. 2012; Veenman et al. 2012). Parameters of inflammation, immune response, migration, and the cell cycle are also tested. All these approaches can also be applied for quality control of the compounds.
The compounds of the invention protect against cell death induced by glutamate in cell culture of U118MG cells of astrocytic origin (FIGS. 1, 2, 3 and 8) or SH SY 6Y cells of neuronal origin (FIG. 4). […] In the control group, 35 mM of glutamate killed ˜60% of the cells.
The experimental setup is explained using FIG. 8B as an example: • 1. Control: Cell death levels are taken as 0% • 2. Glu: Cell death levels induced by glutamate are over 50% • 3. […] Glu+Cpd 5: When Cpd 5 is given as a treatment to counteract cell death induced by glutamate, increasing concentrations of Cpd 5 reduce cell death levels from over 50% to less than 5%.

R6-2 mice [2] = assay: Lifespan of R6-2 mice, transgenic model for Huntington Disease; format: in vivo, mouse; settings: for effect on lifespan: daily s.c. injections 5 days a week from week 5, vs DMSO and saline
From the text: For the assays described herein systemic injections of kainic in rats were applied and also contusion (Veenman et al. 2002; Soustiel et al. Neuropathol Appl Neurobiol. 2008; Soustiel et al. Exp Neurol. 2008). These models present very well defined cell death in the brain. Cell death in the brain is the major pathological characteristic of progressing neurodegeneration common to brain diseases. As the compounds of the present invention are designed to prevent cell death in the brain as a consequence of disease and progressing brain damage after injury, including behavioral impairments, animal models displaying cell death in the brain are the models of choice for displaying the protective capabilities of the compounds of the invention. For these reasons the R6-2 model for Huntington Disease was chosen to test the effectiveness of Compound 1 and to compare the effectiveness of Compound 1 with those of the compound of U.S. Pat. No. 8,541,428 (Cpd A) and with the classical TSPO ligand PK 11195, as well as other compounds disclosed herein. Compounds 5 and 6 were also tested in the same R6-2 model.
R6-2 is a transgenic mouse model for Huntington Disease. Huntington Disease in humans is a hereditary neurodegenerative disease affecting motor performance and finally leading to death of the patients having the disease. R6-2 mice (˜120 CAG repeats B6CBA-Tg(HDexon1)62 Gpb/3J) mice were used for the experiments described below. For this purpose, mice obtained from the Jackson Laboratory (ME) were bred. In particular: males genotype: Hemizygous for Tg(HDexon1)62 Gpb, and females from the wildtype background strain B6CBAF1/J were bred according to the protocol of Jackson Laboratory. The male heterozygote offspring (R6-2 mice) were used for determining life span and motor activity, with and without drug treatment. Drug treatment consisted of daily (5 continuous days a week) subcutaneous injections of mice with 20 μl of: saline (sham control), vehicle DMSO (vehicle control), classic TSPO ligand PK 11195 (15 mg/kg), prior art Compound A (15 mg/kg), Compound 1 (15 mg/kg), and compound 1 (7.5 mg/kg). Drug treatment started on week 5 after birth. Quantities were used according to previous studies regarding TSPO ligands.
(§2) Apart from the behavioral experiments, mice were observed daily, and the day of death was noted. Behavioral experiments included distance covered in an open field apparatus, and tremor measurements.
R6-2 mice were used as previously described in Example 5. In one experiment, treatment consisted of daily (5 continuous days per week) subcutaneous injections of mice with 20 μl of vehicle DMSO (control, n=10) and Compound 6 (7.5 mg/kg, n=12). In a separate experiment, compound 5 (7.5 mg/kg, n=5) was tested, compared to DMSO control (n=5).

R6-2 mice [3] = assay: Incidence of tremor in R6-2 mice; format: in vivo, mouse
From the text: as §2
To assay incidence of tremor in R6-2 mice of the experiments for this invention, the StartleMonitor of Kinder Scientific (Poway, Calif.), with specific software to assay and present force pressure changes in newtons, was used.

U118MG cells [4] = assay: Collapse of the mitochondrial membrane potential (ΔΨm) induced by glutamate; format: cell-based, human; settings: glutamate exposed cells
From the text: as §1
Compound 1 is very effective at a concentration of 25 μM in this model (in order to achieve the same effect with the classical TSPO ligand PK 11195 a concentration of 50 μM has to be applied (data not shown).

[5] = displacement of [3H]PK 11195 from TSPO
[6] = binding affinity to the TSPO, unit given as nm

TSPO, sequence (P30536 whole entry): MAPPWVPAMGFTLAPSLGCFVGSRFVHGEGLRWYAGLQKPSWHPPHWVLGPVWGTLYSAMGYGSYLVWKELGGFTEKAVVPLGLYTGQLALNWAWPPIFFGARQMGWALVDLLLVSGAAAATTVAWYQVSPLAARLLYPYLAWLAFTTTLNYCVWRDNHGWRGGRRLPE

In the case of `CCN(C)C(=O)Oc1nc(-c2ccccc2Cl)nc2ccccc12` [Compound 6, 2-(2-chlorophenyl)quinazolin-4-yl ethyl(methyl)carbamate], the Ki (TSPO; [5]) is reported as ~60 nM, the “lethal effects of compound at high concentration” value (shortened to “lethal effects of compound”) (U118MG cells [1]) is reported as “reduces lethal effects” and the “lethal effects of compound” value (U118MG cells [1]; listed as Cpd 6) is reported as “reduces cell death effects”. The “protection against cell death induced by glutamate” value (“protection … by glutamate” for short) (U118MG cells [1]) was “protect better and more consistently; also recorded: improves protection”, the “protection … by glutamate” value (U118MG cells [1]; listed as compound 6) was “superior over compound 1” and the “Protection against glutamate-induced cell death” value (U118MG cells [1]) was “Excellent”. For the same compound, the “cell death effect of glutamate at high compound concentration” value (U118MG cells [1]; glutamate plus 100 μM compound) was “reduces cell death effect of glutamate in cultures even further”, the “cells killed by glutamate” value (U118MG cells [1]; glutamate plus 100 μM compound, glutamate alone kills 50-60%) was 5% and the “week until which 50% of the mice were still alive” value (R6-2 mice [2]; 7.5 mg/kg s.c., 50% of DMSO mice died before 10th week) was 12 week. The effect on lifespan (R6-2 mice [2]) was “increase the average lifespan; also recorded: extends the life span”, the effect on lifespan (R6-2 mice [2]; listed as compound 6) was “robust lifespan enhancing” and the “incidence of tremor activity” value (R6-2 mice [3]) was “tremor reducing effects; also recorded: reduced the incidence of tremor activity”.
In the case of `CCN(CC)C(=O)Oc1nc(-c2ccc(F)c(Cl)c2)nc2ccccc12` [Compound 2, 2-(3-chloro-4-fluorophenyl)quinazolin-4-yl diethylcarbamate], the Ki (TSPO; [5]) is reported as ~380 nM, the “protection … by glutamate” value (U118MG cells [1]) is reported as “strong protective properties” and the “protection … by glutamate” value (U118MG cells [1]; listed as compound 2) is reported as “protective properties”. The “Protection against glutamate-induced cell death” value (U118MG cells [1]) was “Good”.
For `CCC(C)N(C)C(=O)c1cc2ccccc2c(-c2ccccc2Cl)n1` (stereo not drawn) [PK 11195, 1-(2-chlorophenyl)-N-methyl-N-(1-methyl-propyl)-3 isoquinolinecarboxamide, reference compound], the “concentration very effective in preventing ΔΨm collapse” value (U118MG cells [4]) was 50 µM and the effect on lifespan (R6-2 mice [2]) was “indistinguishable from vehicle; also recorded: had no such effects; also recorded: has no effect at all”.
For `CN(C)C(=O)Oc1nc(-c2ccccc2)nc2ccccc12` [Compound A, reference compound], the Ki (TSPO; [6]) was ~600 nM, the Ki (TSPO; [5]) was ~600 nM and the “protection … by glutamate” value (U118MG cells [1]) was “significantly less efficacious”. The “Protection against glutamate-induced cell death” value (U118MG cells [1]) was “Good” and the effect on lifespan (R6-2 mice [2]) was “indistinguishable from vehicle treated mice; also recorded: had no such effects; also recorded: has no effect”.
`CCN(CC)C(=O)Oc1nc(-c2c(Cl)cccc2Cl)nc2ccccc12` [Compound 3, 2-(2,6-dichlorophenyl)quinazolin-4-yl diethylcarbamate] was tested, and the Ki (TSPO; [5]) was ~1510 nM, the “protection … by glutamate” value (U118MG cells [1]) was “good protective properties” and the “protection … by glutamate” value (U118MG cells [1]; listed as compound 3) was “protective properties”. For the same compound, the “Protection against glutamate-induced cell death” value (U118MG cells [1]) was “Good”.
With `CCN(CC)C(=O)Oc1nc(-c2ccccc2Cl)nc2ccccc12` [Compound 8, 2-(2-chlorophenyl)quinazolin-4-yl diethylcarbamate] the Ki (TSPO; [5]) was ~2.5 nM, the “lethal effects of compound” value (U118MG cells [1]) was “reduces lethal effects” and the “lethal effects of compound” value (U118MG cells [1]; listed as Cpd 8) was “reduces cell death effects”. For the same compound, the “protection … by glutamate” value (U118MG cells [1]) was “improves protection”, the “Protection against glutamate-induced cell death” value (U118MG cells [1]) was “Good” and the “cell death effect of glutamate at high compound concentration” value (U118MG cells [1]; glutamate plus 100 μM compound) was “reduces cell death effect of glutamate in cultures even further”.
With `CCN(CC)C(=O)Oc1nc(-c2ccccc2)nc2ccccc12` [Compound 7, 2-phenylquinazolin-4-yl diethylcarbamate] the Ki (TSPO; [6]) was ~2.5 nM, the Ki (TSPO; [5]) was ~2.5 nM and the “Protection against glutamate-induced cell death” value (U118MG cells [1]) was “Good”.
